What was measured:
[1] = system: TGFβ/SMAD Signaling Pathway SBE reporter cell line; experiment: TGFβ reporter assay, in vitro small molecule screening (luciferase); format: cell-based; conditions: TGFβ stimulation, luminescence
Outline: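 SBE luciferase reporter cells (~0.5×10^6 cells/mL) preincubated with compound 5-6 h at 37 °C in 0.5% FBS MEM, then stimulated with TGFβ (12 ng/mL stock) for 18 h. Luminescence read after luciferase substrate; EC50 from curve fits.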

TGFBR2 = biological target: T1, TGFBR2 (Homo sapiens, UniProt P37173); experiment: TGFBR2 RBC assay (enzyme inhibition assay, Reaction Biology Corp.); format: biochemical
T1 construct: purchased Reaction Biology Corp
Procedure: Compounds of the disclosure were also assayed by Reaction Biology Corp. using the TGFBR2 RBC assay (enzyme inhibition assay). […] NT refers to not tested.

T1 sequence (P37173 23-567): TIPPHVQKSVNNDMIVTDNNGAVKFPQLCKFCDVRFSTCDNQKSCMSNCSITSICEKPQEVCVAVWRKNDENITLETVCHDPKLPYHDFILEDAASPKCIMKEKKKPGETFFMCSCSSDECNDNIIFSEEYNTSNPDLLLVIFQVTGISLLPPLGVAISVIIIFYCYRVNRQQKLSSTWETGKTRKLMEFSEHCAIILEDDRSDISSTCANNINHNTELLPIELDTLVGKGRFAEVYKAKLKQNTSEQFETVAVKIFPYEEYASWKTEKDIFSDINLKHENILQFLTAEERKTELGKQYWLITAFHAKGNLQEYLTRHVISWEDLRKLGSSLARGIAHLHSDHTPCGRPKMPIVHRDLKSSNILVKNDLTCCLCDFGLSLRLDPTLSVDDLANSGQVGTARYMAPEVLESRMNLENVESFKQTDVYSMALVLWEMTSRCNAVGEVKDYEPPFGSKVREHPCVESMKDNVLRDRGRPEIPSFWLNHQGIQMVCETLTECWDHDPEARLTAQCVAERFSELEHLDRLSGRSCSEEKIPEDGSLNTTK

EC50 [1]	IC50 (TGFBR2)	Compound
50 to 100 nM	< 50 nM	Nc1ncc(-c2ccc3c(c2)CCCN3)nc1C(=O)Nc1cnccc1N1CCOCC1 [Compound 193]
100 to 1000 nM	< 50 nM	CC(N)COc1cccc(-c2cnc(N)c(C(=O)Nc3cnccc3N3CCOCC3)n2)c1 (stereo not shown) [Compound 194]
100 to 1000 nM	< 50 nM	COC(=O)[C@H](N)Cc1ccc(-c2cnc(N)c(C(=O)Nc3cnccc3N3CCOCC3)n2)cc1 [Compound 195]
100 to 1000 nM	< 50 nM	CC(C)(C)OC(=O)N[C@H](Cc1ccc(-c2cnc(N)c(C(=O)Nc3cnccc3N3CCOCC3)n2)cc1)C(=O)O [Compound 196]
> 1000 nM	100 to 1000 nM	Nc1ncc(-c2ccc(C[C@@H](N)C(=O)O)cc2)nc1C(=O)Nc1cnccc1N1CCOCC1 [Compound 197]
100 to 1000 nM	50 to 100 nM	Nc1ncc(-c2ccc3c(c2)CCC(=O)N3)nc1C(=O)Nc1cnccc1N1CCOCC1 [Compound 198]
> 1000 nM	< 50 nM	CC(C)(C)OC(=O)N[C@@H](CO)Cc1ccc(-c2cnc(N)c(C(=O)Nc3cnccc3N3CCOCC3)n2)cc1 [Compound 199]
> 1000 nM	< 50 nM	COC(=O)[C@H](Cc1ccc(-c2cnc(N)c(C(=O)Nc3cnccc3N3CCOCC3)n2)cc1)NC(=O)OC(C)(C)C [Compound 200]
100 to 1000 nM	100 to 1000 nM	Nc1ncc(-c2ccc3c(c2)CCNC3=O)nc1C(=O)Nc1cnccc1N1CCOCC1 [Compound 201]
100 to 1000 nM	< 50 nM	Nc1ncc(-c2ccc(C[C@@H](N)CO)cc2)nc1C(=O)Nc1cnccc1N1CCOCC1 [Compound 202]
> 1000 nM	< 50 nM	COC(=O)[C@@H](N)Cc1ccc(-c2cnc(N)c(C(=O)Nc3cnccc3N3CCOCC3)n2)cc1 [Compound 203]
> 1000 nM	< 50 nM	CC(COc1ccc(-c2cnc(N)c(C(=O)Nc3cnccc3N3CCOCC3)n2)cc1)NC(=O)OC(C)(C)C (stereo not shown) [Compound 204]
100 to 1000 nM	< 50 nM	CC(N)COc1ccc(-c2cnc(N)c(C(=O)Nc3cnccc3N3CCOCC3)n2)cc1 (stereo not shown) [Compound 205]
100 to 1000 nM	< 50 nM	CC(CNC(=O)OC(C)(C)C)Oc1ccc(-c2cnc(N)c(C(=O)Nc3cnccc3N3CCOCC3)n2)cc1 (stereo not shown) [Compound 206]
100 to 1000 nM	< 50 nM	CC(C)(C)OC(=O)N[C@@H](Cc1ccc(-c2cnc(N)c(C(=O)Nc3cnccc3N3CCOCC3)n2)cc1)C(=O)O [Compound 207]
> 1000 nM	< 50 nM	Nc1ncc(-c2ccc(C[C@H](N)C(=O)O)cc2)nc1C(=O)Nc1cnccc1N1CCOCC1 [Compound 208]
100 to 1000 nM	< 50 nM	CC(C)(C)OC(=O)N[C@H](CO)Cc1ccc(-c2cnc(N)c(C(=O)Nc3cnccc3N3CCOCC3)n2)cc1 [Compound 209]
100 to 1000 nM	< 50 nM	Nc1ncc(-c2ccc(C[C@H](N)CO)cc2)nc1C(=O)Nc1cnccc1N1CCOCC1 [Compound 210]
100 to 1000 nM	< 50 nM	CC(C)(C)OC(=O)NC1Cc2ccc(-c3cnc(N)c(C(=O)Nc4cnccc4N4CCOCC4)n3)cc2C1 (stereo not shown) [Compound 212]
50 to 100 nM	< 50 nM	Nc1ncc(-c2ccc3c(c2)CC(N)C3)nc1C(=O)Nc1cnccc1N1CCOCC1 (stereo not shown) [Compound 213]
100 to 1000 nM	< 50 nM	CC1(C)CCNc2ccc(-c3cnc(N)c(C(=O)Nc4cnccc4N4CCOCC4)n3)cc21 [Compound 214]
100 to 1000 nM	< 50 nM	CC(C)(C)OC(=O)NC1CCc2cc(-c3cnc(N)c(C(=O)Nc4cnccc4N4CCOCC4)n3)ccc21 (stereo not shown) [Compound 215]

EC50 [1]	IC50 (TGFBR2)	Compound
50 to 100 nM	< 50 nM	CC1CCNc2ccc(-c3cnc(N)c(C(=O)Nc4cnccc4N4CCOCC4)n3)cc21 (stereo not shown) [Compound 216]
100 to 1000 nM	< 50 nM	Nc1ncc(-c2ccc3c(c2)OCCN3)nc1C(=O)Nc1cnccc1N1CCOCC1 [Compound 217]
50 to 100 nM	< 50 nM	CC(C)(C)OC(=O)N1CC(Oc2ccc(-c3cnc(N)c(C(=O)Nc4cnccc4N4CCOCC4)n3)cc2)C1 [Compound 218]
50 to 100 nM	< 50 nM	Nc1ncc(-c2ccc(OC3CNC3)cc2)nc1C(=O)Nc1cnccc1N1CCOCC1 [Compound 219]
100 to 1000 nM	< 50 nM	Nc1ncc(-c2ccc3c(c2)CCC3N)nc1C(=O)Nc1cnccc1N1CCOCC1 (stereo not shown) [Compound 220]
< 50 nM	< 50 nM	CC(C)(C)OC(=O)N[C@H]1C[C@H](Oc2ccc(-c3cnc(N)c(C(=O)Nc4cnccc4N4CCOCC4)n3)cc2)C1 [Compound 221]
100 to 1000 nM	< 50 nM	Nc1ncc(-c2ccc(O[C@H]3C[C@H](N)C3)cc2)nc1C(=O)Nc1cnccc1N1CCOCC1 [Compound 222]
100 to 1000 nM	< 50 nM	CC(C)(C)OC(=O)N[C@H]1C[C@@H](Oc2ccc(-c3cnc(N)c(C(=O)Nc4cnccc4N4CCOCC4)n3)cc2)C1 [Compound 223]
> 1000 nM	< 50 nM	Nc1ncc(-c2ccc(O[C@H]3C[C@@H](N)C3)cc2)nc1C(=O)Nc1cnccc1N1CCOCC1 [Compound 224]
100 to 1000 nM	100 to 1000 nM	CC1c2ccc(-c3cnc(N)c(C(=O)Nc4cnccc4N4CCOCC4)n3)cc2CCN1C(=O)OC(C)(C)C (stereo not shown) [Compound 225]
100 to 1000 nM	< 50 nM	CCOC(=O)[C@@H]1CN(Cc2ccccc2)C[C@H]1c1ccc(-c2cnc(N)c(C(=O)Nc3cnccc3N3CCOCC3)n2)cc1 [Compound 226]
50 to 100 nM	< 50 nM	CCOC(=O)[C@@H]1CNC[C@H]1c1ccc(-c2cnc(N)c(C(=O)Nc3cnccc3N3CCOCC3)n2)cc1 [Compound 227]
100 to 1000 nM	50 to 100 nM	CC(C)(C)OC(=O)N1CCCc2cc(-c3cnc(N)c(C(=O)Nc4cnccc4N4CCOCC4)n3)ccc2C1 [Compound 228]
100 to 1000 nM	50 to 100 nM	Nc1ncc(-c2ccc3c(c2)CCCNC3)nc1C(=O)Nc1cnccc1N1CCOCC1 [Compound 229]
50 to 100 nM	< 50 nM	CC(C)(C)OC(=O)N1CCc2cc(-c3cnc(N)c(C(=O)Nc4cnccc4N4CCOCC4)n3)ccc2C1CN (stereo not shown) [Compound 230]
> 1000 nM	< 50 nM	Nc1ncc(-c2ccc3c(c2)CCNC3CN2C(=O)c3ccccc3C2=O)nc1C(=O)Nc1cnccc1N1CCOCC1 (stereo not shown) [Compound 232]
100 to 1000 nM	< 50 nM	CC(C)(C)OC(=O)NCC1CCc2cc(-c3cnc(N)c(C(=O)Nc4cnccc4N4CCOCC4)n3)ccc2O1 (stereo not shown) [Compound 233]
100 to 1000 nM	< 50 nM	CC1NCCc2cc(-c3cnc(N)c(C(=O)Nc4cnccc4N4CCOCC4)n3)ccc21 (stereo not shown) [Compound 234]
100 to 1000 nM	< 50 nM	NCC1NCCc2cc(-c3cnc(N)c(C(=O)Nc4cnccc4N4CCOCC4)n3)ccc21 (stereo not shown) [Compound 235]
> 1000 nM	< 50 nM	Nc1ncc(-c2ccc(CCNC(=O)OCc3ccccc3)cc2)nc1C(=O)Nc1cnc(F)cc1N1CCOCC1 [Compound 236]
50 to 100 nM	< 50 nM	NCC1CCc2cc(-c3cnc(N)c(C(=O)Nc4cnccc4N4CCOCC4)n3)ccc2O1 (stereo not shown) [Compound 237]
100 to 1000 nM	50 to 100 nM	CC(C)(C)OC(=O)NC1CNc2ccc(-c3cnc(N)c(C(=O)Nc4cnccc4N4CCOCC4)n3)cc2C1 (stereo not shown) [Compound 238]

From patent publication US20220362396A1, “AMINO-PYRAZINECARBOXAMIDE COMPOUNDS, CONJUGATES, AND USES THEREOF” (Silverback Therapeutics, Inc., priority 2018, published 2022)
